The source of these data is patent US11827628B2, “Compositions and methods for inhibition of the JAK pathway” (Rigel Pharmaceuticals, Inc., priority 2005, dated 2023).

Assay [1] has as its system IL-4 stimulated expression of CD23 in human Ramos B cells (JAK-1 and JAK-3). In words: Assay for Ramos B-Cell Line Stimulated with IL-4 (CD23 upregulation, FACS). In kind it is cell-based. Particulars: Homo sapiens, Ramos, Ramos B cells stimulated with IL-4, CD23 expression by FACS; read-out: IC50, Example 41. A digest of the protocol:
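Compound effect on IL-4-driven JAK1/JAK3 signalling is gauged as CD23 surface expression, measured by FACS after 20-24 h of stimulation with IL-4 at 50 units/mL final. A 1 h compound pre-treatment at 37 °C precedes stimulation, and IC50 is derived from the results.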
On the technique in general: Flow cytometry measures light scatter and fluorescence of single cells or particles in a stream.

The subject of assay [2] is up-regulation of ICAM-1 (CD54) by IFNγ in U937 human monocytic cells. In words: U937 IFNγ ICAM1 FACS Assay. Particulars: Homo sapiens, U-937, U937 cells stimulated with IFNγ, ICAM-1 expression by FACS; read-out: IC50, Example 44. In kind it is cell-based. The text has this:
The activity of the compounds of the invention may additionally be characterized by assaying the effect of the 2,4-substituted pyrimidinediamine compounds described herein on A549 lung epithelial cells and U937 cells. A549 lung epithelial cells and U937 cells up-regulate ICAM-1 (CD54) surface expression in response to a variety of different stimuli. Therefore, using ICAM-1 expression as readout, test compound effects on different signaling pathways can be assessed in the same cell type. Stimulation with IL-1β through the IL-1β receptor activates the TRAF6/NFκB pathway resulting in up-regulation of ICAM-1. IFNγ induces ICAM-1 up-regulation through activation of the JAK1/JAK2 pathway. The up-regulation of ICAM-1 can be quantified by flow cytometry across a compound dose curve and EC50, values are calculated.
U937 human monocytic cells up-regulate ICAM-1 (CD54) surface expression in response to a variety of different stimuli. Therefore, using ICAM-1 expression as readout, compound effects on different signaling pathways can be assessed in the same cell type. IFNγ up-regulates ICAM-1 through activation of the JAK/Stat pathway. In this example, the up-regulation of ICAM-1 by IFNγ was assessed.
The U937 human monocytic cell line was obtained from ATCC of Rockville Maryland, catalog number CRL-1593.2, and cultured in RPM1-1640 medium containing 10% (v/v) FCS. U937 cells were grown in 10% RPMI. The cells were then plated at a concentration of 100,000 cells per 160 μL in 96 well flat bottom plates. […] Then 4 μL of test compound was transferred to 76 μL of 10% RPMI resulting in a 10× solution (100 μM test compound, 5% DMSO). For control wells, 4 μL of DMSO was diluted into 76 μL 10% RPMI.
The assay was performed in duplicate with 8 points (8 3-fold dilution concentrations from […]) and with 4 wells of DMSO only (control wells) under stimulated conditions and 4 wells of DMSO only under unstimulated conditions.
The diluted compound plate was mixed 2× using a multimek (Beckman Coulter of Brea, California) and then 20 μL of the diluted compounds was transferred to the 96 well plate containing 160 μL of cells, which were then mixed again twice at low speeds. The cells and compounds were then pre-incubated for 30 minutes at 37° C. with 5% CO2.
The 10× stimulation mix was made by preparing a 100 ng/mL solution of human IFNγ in 10% RPMI. […] The cells were kept under conditions for stimulation for 18-24 hours at 37° C. with 5% CO2.
The cells were transferred to a 96 well round bottom plate for staining and then kept on ice for the duration of the staining procedure. Cells were spun down at 1000 rpm for 5 minutes at 4° C., following which the supernatant was removed. Following removal of the supernatant, 1 μL APC conjugated mouse anti-human ICAM-1 antibody was added per 100 μL FACS buffer. The cells were then incubated on ice in the dark for 30 minutes. Following incubation, […] of FACS buffer was added and the cells were centrifuged at 1000 rpm for 5 minutes at 4° C., following which the supernatant was removed. After removal of the supernatant, 200 μL of FACS buffer was added and the cells were resuspended. After suspension, the cells were centrifuged at 1000 rpm for 5 min at 4° C. Supernatant was then removed prior to resuspension of the cells in 150 μL FACS buffer.
Detection was performed using a BD LSR I System Flow Cytometer, purchased from BD Biosciences of San Jose, California The live cells were gated for live scatter and the geometric mean of ICAM-APC was measured (Becton-Dickinson CellQuest software version 3.3, Franklin Lakes, NJ). Both % live cells and ICAM-1 expression was analyzed. The assays for the test compounds were carried out in parallel with a control compound of known activity.

One may read the IC50 as the point on the concentration scale where inhibition reaches its midpoint. Regarding `Cc1ccc(Nc2ncc(F)c(Nc3ccc4c(CC#N)c[nH]c4c3)n2)cc1S(N)(=O)=O` [IX-11, N2-(3-Aminosulfonyl-4-methylphenyl)-N4-(3-cyanomethyl-1H-indol-6-yl)-5-fluoro-2,4-pyrimidinediamine], the IC50 in assay [1] stood at 115 nM; in assay [2], 2240 nM.

Consider `N#CCc1c[nH]c2cc(Nc3nc(Nc4cccc(S(N)(=O)=O)c4)ncc3F)ccc12` [IX-12, N2-(3-Aminosulfonylphenyl)-N4-(3-cyanomethyl-1H-indol-6-yl)-5-fluoro-2,4-pyrimidinediamine], for which the IC50 in assay [1] stood at 97.3 nM; in assay [2], 3480 nM.

On to `N#CCc1c[nH]c2ccc(Nc3nc(Nc4cccc(S(N)(=O)=O)c4)ncc3F)cc12` [IX-13, N2-(3-Aminosulfonylphenyl)-N4-(3-cyanomethyl-1H-indol-5-yl)-5-fluoro-2,4-pyrimidinediamine], for which the IC50 in assay [1] was found to be 138 nM; in assay [2], 1850 nM.

As for `Cc1ccc(Nc2ncc(F)c(Nc3ccc4[nH]cc(CC#N)c4c3)n2)cc1S(N)(=O)=O` [IX-14, N2-(3-Aminosulfonyl-4-methylphenyl)-N4-(3-cyanomethyl-1H-indol-5-yl)-5-fluoro-2,4-pyrimidinediamine], the IC50 in assay [1] was found to be 57.4 nM; in assay [2], 1090 nM.

As to `N#CCc1c[nH]c2c(Nc3nc(Nc4cccc(S(N)(=O)=O)c4)ncc3F)cccc12` [IX-15, N2-(3-Aminosulfonylphenyl)-N4-(3-cyanomethyl-1H-indol-7-yl)-5-fluoro-2,4-pyrimidinediamine], the IC50 in assay [1] came to 217 nM; in assay [2] it was 5360 nM.

Consider `Cc1ccc(Nc2ncc(F)c(Nc3cccc4c(CC#N)c[nH]c34)n2)cc1S(N)(=O)=O` [IX-16, N2-(3-Aminosulfonyl-4-methylphenyl)-N4-(3-cyanomethyl-1H-indol-7-yl)-5-fluoro-2,4-pyrimidinediamine], for which the values for the IC50 in assay [1] and in assay [2] were 210 nM and 2510 nM, respectively.

Take `NS(=O)(=O)c1cccc(Nc2ncc(F)c(Nc3ccc(C(=O)N4CCSCC4)cc3)n2)c1` [IX-34, N2-(3-Aminosulfonylphenyl)-5-fluoro-N4-[4-(4-thiomorpholinyl)carbonylphenyl]-2,4-pyrimidinediamine]: the figures for the IC50 in assay [1] and in assay [2] were 582 nM and 3950 nM, respectively.

Turning to `Cc1ccc(Nc2ncc(F)c(Nc3ccc(C(=O)N4CCSCC4)cc3)n2)cc1S(N)(=O)=O` [IX-35, N2-(3-Aminosulfonyl-4-methylphenyl)-5-fluoro-N4-[4-(4-thiomorpholinyl)carbonylphenyl]-2,4-pyrimidinediamine], the IC50 in assay [1] was 455 nM; in assay [2] it was 2100 nM.

On to `COc1cc(Nc2nc(Nc3ccc(C)c(S(N)(=O)=O)c3)ncc2F)ccc1Cl` [VI-5, N2-(3-Aminosulfonyl-4-methylphenyl)-N4-(4-chloro-3-methoxyphenyl)-5-fluoro-2,4-pyrimidinediamine], for which the figures for the IC50 in assay [1] and in assay [2] were 40.5 nM and 1390 nM, respectively.

As to `Cc1ccc(Nc2ncc(F)c(Nc3ccc(Cl)c(Cl)c3)n2)cc1S(N)(=O)=O` [VI-6, N2-(3-Aminosulfonyl-4-methylphenyl)-N4-(3,4-dichlorophenyl)-5-fluoro-2,4-pyrimidinediamine], the IC50 amounted to 37.5 nM in assay [1] and 7700 nM in assay [2].

For `COc1cc(Nc2nc(Nc3ccc(Cl)c(S(N)(=O)=O)c3)ncc2F)ccc1Cl` [VI-11, N2-(3-Aminosulfonyl-4-chlorophenyl)-N4-(4-chloro-3-methoxyphenyl)-5-fluoro-2,4-pyrimidinediamine], the IC50 in assay [1] turned out to be 259 nM; in assay [2] it was 7140 nM.

For `COc1ccc(Nc2nc(Nc3cc(Cl)c(C)c(S(N)(=O)=O)c3)ncc2F)cc1Cl` [VI-13, N2-(3-Aminosulfonyl-5-chloro-4-methylphenyl)-N4-(3-chloro-4-methoxyphenyl)-5-fluoro-2,4-pyrimidinediamine], the IC50 is 96.5 nM in assay [1] and 1390 nM in assay [2].
